Measurements published in patent publication US11149006B2, “Compounds as neurokinin-1 receptor antagonists and uses thereof” (XW LABORATORIES INC., priority 2018, dated 2021).

What was measured:
[1] = target: human NK-1 receptor (NK-1/HEK293) (Homo sapiens (Human), UniProt P25103); test: NK-1 calcium flux FLIPR antagonist assay; type: cell-based; conditions: for inhibition at 10 µM: HEK293, NK-1, max dose 10000 nM; for IC50: NK-1 FLIPR antagonist mode
Method: (§1) The potential antagonist activity of Compound I and IV on human NK-1/2/3 receptor was evaluated by calcium flux FLIPR assay. The results are shown in the following Table 2, while the NK-1 fitting dose-response curves for Compound I and IV are shown in FIGS. 2A and 2B, respectively.
(§2) 1. NK-1, NK-2 and NK-3 Calcium Flux FLIPR assays:
(§3) Materials: Cell Lines: NK-1/HEK293, NK-2/HEK293, NK-3/HEK293. Media: DMEM, Invitrogen (Cat #11960), FBS, Corning (Cat #35-076-CV), G418, Invitrogen (Cat #10131-027), and Blasticidin, Invitrogen (Cat #A11139). Reagent: Fluo-4 Direct, (Invitrogen, Cat #F10471).
(§4) Experimental procedure for NK-1, NK-2 and NK-3 calcium flux FLIPR assay: Perform the assay in the following steps: 1) Cell preparation: thaw each cell (NK-1, NK-2 and NK-3) in 37° C. water bath with gentle shaking, transfer cell suspensions to 50 mL conical tubes and add plating media to 45 mL mark. Count cells using a ViCell for concentration. Re-suspend the cells in the growth media to a concentration of 10×10^5 per mL. Add 20 μL per well of the cell suspension to the 384-well plates (20,000 cells/well). Place the cells at 37° C. 5% CO2 incubator overnight. 2) Calcium Flux FLIPR assay: a) Prepare Probenecid reagent by adding 1 mL FLIPR Assay Buffer to 77 mg probenecid to make 250 mM solution. b) Prepare assay reagent (2×8 μM Fluo-4 Direct™ Loading Buffer): Thaw one vial of Fluo-4 Direct™ crystals, add 10 mL of FLIPR Assay Buffer to the Vial; add 0.2 mL of Probenecid to each 10 mL vial of Fluo-Direct. c) Compounds preparation: The compounds are serially diluted in 100% DMSO 1:3 for 10 pts by Echo. Then dispense 900 nL of compounds to the 384-compound plate. Remove cell plate from incubator and gently dispense 20 μL of 2×Fluo-4 Direct™ to 384 well cell culture plate. Incubate for 50 min at 37° C. 5% CO2 and 10 min at room temperature. Remove cell plate from incubator and place it into FLIPR (Molecular Devices). Place compound plate and tip box into FLIPR. For the dose response curve (DRC) plate: a) Run the Protocol on FLIPRTETRA. b) Transfer 10 μL of assay buffer from 384-well plate to the cell plates. c) Read fluorescence signal. d) Transfer 10 μL of the compounds from the DRC plate to the cell plates. e) Read fluorescence signal. f) Calculate the “Max-Min” starting from Read 90 to Maximum allowed. […] For the compound plate in antagonist test: a) Run the Protocol on FLIPRTETRA. b) Transfer 10 μL of references and compounds from the compound plate to the cell plates. c) Read fluorescence signal. d) Transfer 10 μL of 6×EC80 concentrations of agonist reference compounds to the cell plates. e) Read fluorescence signal. f) For antagonist test, calculate the “Max-Min” starting from Read 90 to Maximum allowed. h) Analyze the data using GraphPad Prism 5.0.

[2] = tested on: cisplatin-induced emesis in ferrets; test: Cisplatin-induced acute and delayed emesis in the ferret; type: in vivo; conditions: for reduction of retching+vomiting, entire delayed phase: delayed phase 24-72 h
Method: To investigate the anti-emetic potential of Compound I by preventing cisplatin-induced acute and delayed emesis in the ferret. Aprepitant was used as a positive control in this study.
40 castrated male ferrets weighing between 1.2 and 2.3 kg were used, which were obtained from Wuxi Sangosho Biotechnology Co. Ltd. (Wuxi, Jiangsu, China) and housed in groups of 2-3 at 24±1° C. with at 50±5% humidity. Artificial lighting was provided between 06:00 to 18:00 h. Water and dry pelleted cat chow were given ad libitum, unless otherwise stated. All experiments were conducted under license from the Government of the Hong Kong SAR and the Animal Experimentation Ethics Committee, The Chinese University of Hong Kong.
Compound I and aprepitant were supplied by XW Laboratories, Inc, China and were dissolved in distilled water. Cisplatin (Lot #MKBR1947V) was from Sigma-Aldrich, St. Louis, USA, and was dissolved in 0.9% w/v saline adjusted to pH 4 with 0.1N HCl. Doses were expressed as the free base, unless otherwise stated.
On the day of the experiment, groups of ferrets were administered Compound I (0.1, 0.3, 1 mg/kg, p.o.), aprepitant (1 mg/kg, p.o.), or distilled water (vehicle control, 1 mL/kg, p.o.) 2 h before cisplatin (5 mg/kg, i.p.) and then the treatments were continued at 24 h intervals (at 24 and 48 h post cisplatin). Emesis was characterized by rhythmic abdominal contractions that were either associated with the forceful oral expulsion of solid or liquid material from the gastrointestinal tract (i.e., vomiting), or not associated with the passage of material (i.e., retching movements). Consecutive episodes of retching and/or vomiting were considered separate when the animal changed its location in the observation cage, or when the interval between episodes exceeded 5 seconds.
GraphPad Prism 8 (GraphPad Software, La Jolla, Calif., United States) was used to perform statistical comparisons. Animal emesis behaviours like retching and vomiting were analyzed using a one-way analysis of variance followed by Tukey's multiple comparisons tests. The results are expressed as the mean±SEM. In all cases, differences between treatment groups were considered significant when the p value was less than 0.05.

[3] = target: human NK-3 receptor (NK-3/HEK293) (Homo sapiens (Human), UniProt P29371); test: NK-3 calcium flux FLIPR antagonist assay; type: cell-based; conditions: for inhibition at 10 µM: HEK293, NK-3, max dose 10000 nM; for IC50: NK-3 FLIPR antagonist mode
Sequence of human NK-3 receptor (NK-3/HEK293) (P29371 whole entry): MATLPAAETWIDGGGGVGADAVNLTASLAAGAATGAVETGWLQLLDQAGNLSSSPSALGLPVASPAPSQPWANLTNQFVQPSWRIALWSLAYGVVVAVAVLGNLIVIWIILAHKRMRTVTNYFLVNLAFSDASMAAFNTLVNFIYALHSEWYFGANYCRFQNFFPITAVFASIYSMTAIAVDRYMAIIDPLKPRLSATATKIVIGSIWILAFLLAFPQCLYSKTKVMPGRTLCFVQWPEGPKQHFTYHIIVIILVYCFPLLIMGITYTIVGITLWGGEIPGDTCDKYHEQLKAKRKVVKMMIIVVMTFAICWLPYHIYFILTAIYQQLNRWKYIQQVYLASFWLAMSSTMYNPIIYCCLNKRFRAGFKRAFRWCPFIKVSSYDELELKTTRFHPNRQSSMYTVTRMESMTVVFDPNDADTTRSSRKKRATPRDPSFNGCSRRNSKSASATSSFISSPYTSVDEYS
Method: as §1, §2, §3, §4

[4] = target: human NK-2 receptor (NK-2/HEK293) (Homo sapiens (Human), UniProt P21452); test: NK-2 calcium flux FLIPR antagonist assay; type: cell-based; conditions: for inhibition at 10 µM: HEK293, NK-2, max dose 10000 nM; for IC50: NK-2 FLIPR antagonist mode
Sequence of human NK-2 receptor (NK-2/HEK293) (P21452 whole entry): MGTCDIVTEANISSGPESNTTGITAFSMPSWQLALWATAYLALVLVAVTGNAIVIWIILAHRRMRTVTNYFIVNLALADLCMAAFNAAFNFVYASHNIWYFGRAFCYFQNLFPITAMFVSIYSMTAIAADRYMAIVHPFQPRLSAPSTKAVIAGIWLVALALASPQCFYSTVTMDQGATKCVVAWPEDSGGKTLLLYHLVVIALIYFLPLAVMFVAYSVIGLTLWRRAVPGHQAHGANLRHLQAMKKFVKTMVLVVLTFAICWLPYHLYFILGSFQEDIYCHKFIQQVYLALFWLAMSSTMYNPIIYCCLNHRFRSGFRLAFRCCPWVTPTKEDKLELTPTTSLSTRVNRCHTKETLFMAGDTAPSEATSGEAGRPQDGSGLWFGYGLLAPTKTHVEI
Method: as §1, §2, §3, §4

human NK-1 receptor = human NK-1 receptor (Homo sapiens (Human), UniProt P25103); test: Tag-Lite Tachykinin NK-1 receptor competitive binding assay (TR-FRET); conditions: Tag-Lite NK-1 labeled cells, read-out: IC50 on hNK-1 receptor
Sequence of human NK-1 receptor (P25103 whole entry): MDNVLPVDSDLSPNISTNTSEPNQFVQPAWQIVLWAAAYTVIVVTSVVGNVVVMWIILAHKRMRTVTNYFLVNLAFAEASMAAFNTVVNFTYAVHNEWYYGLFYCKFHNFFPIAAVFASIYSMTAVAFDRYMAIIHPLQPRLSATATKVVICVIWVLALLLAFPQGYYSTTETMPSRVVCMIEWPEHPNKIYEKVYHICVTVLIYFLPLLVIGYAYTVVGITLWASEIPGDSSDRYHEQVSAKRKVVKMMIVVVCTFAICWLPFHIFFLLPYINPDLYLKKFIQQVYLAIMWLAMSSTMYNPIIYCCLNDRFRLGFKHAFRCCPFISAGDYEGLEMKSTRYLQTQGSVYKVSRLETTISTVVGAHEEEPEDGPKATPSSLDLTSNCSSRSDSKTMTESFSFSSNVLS
Method: Human Tachykinin NK-1 receptor binding assay was performed using CisBio's Tag-Lite® Ligand binding assay. The homogeneous binding assay employees the time resolved fluorescence energy transfer (TR-FRET) technology. The potential inhibitory effect of Compound I and V on human NK-1 receptor was evaluated by TagLite® Tachykinin NK-1 receptor binding assay.
1. Tag-Lite® Tachykinin NK-1 receptor binding assay.
Materials: Tag-Lite® Tachykinin NK-1 labeled Cells, Tachykinin NK-1 Receptor red agonist Fluorescent Ligand (10 μMx50 μL), Tag-Lite Buffer (TLB) (5×concentration) (CisBio, Redford, Mass., U.S.A). [Sar9, Met(O2)11]-Substance P-Polypeptides (Tocris, Bristol, UK).
2. Competitive binding (Ki determination): Competitive binding assay measures the dissociation constant, To perform the assay, the compound is titrated into a solution containing a fixed concentration of fluorescent ligand and a fixed amount of cells.
Experimental procedure for competitive binding (Ki determination): Perform CisBio's Tag-Lite® Tachykinin NK-1 binding assay according to manufacturer's protocol. […] Incubate 2 h at room temperature, read the Signal665nm and Signal620nm using Evision. Data analysis was performed by calculating the Ratio following the formula below, the competitive binding data for each compound was analyzed with GraphPad Prism 5.0, and IC50 value was calculated for each compound.

[5] = Rat pharmacokinetic study; type: in vivo, male Sprague-Dawley rats; conditions: male, Sprague-Dawley, plasma
Method: For rat pharmacokinetic studies, male Sprague-Dawley rats were housed individually and fasted overnight before use. For Compound I and reference compound CP-122721, a single dose was administered to each rat in two groups (n=5/group) via intravenous (i.v.) administration at 4 mg/kg and oral (p.o.) administration of 20 mg/kg, respectively.
The vehicle used for i.v. administration was 10% HP-β-CD. The vehicle used for p.o. administration was 0.5% CMC-Na/0.1% Tween 80 in saline. Blood samples were collected at specified time-points following administration to individual rats within i.v. (pre-dose, 10 min, 0.5 h, 1 h, 2 h, 4 h, 6 h, 8 h, 12 h) and p.o. (pre-dose, 15 min, 0.5 h, 1 h, 2 h, 4 h, 8 h, 12 h, 24 h) group. Blood samples were clotted on ice immediately, plasma samples were then isolated by centrifugation and stored frozen (−80° C.) until further analysis. The concentrations of Compound I and CP-122721 were individually determined by LC/MS/MS assay. Various pharmacokinetic parameters were calculated using Phoenix™ WinNonlin® software. To quantify the bioconversion efficiency of the Compound I and CP-122721 in the circulation system, the bioavailability of Compound I and CP-122721 after p.o. administration was calculated.

[6] = 1 mg/kg p.o., day 2 (non-significant)
[7] = 1 mg/kg p.o., entire 72 h observation period

Sequence of human NK-1 receptor (NK-1/HEK293) (P25103 whole entry): as above

## COc1ccc(S(F)(F)(F)(F)F)cc1CN[C@H]1CCCN[C@H]1c1ccccc1 [Compound I, (2S,3S)—N-(2-methoxy-5-(pentafluorosulfanyl)benzyl)-2-phenylpiperidin-3-amine]
[1]
  inhibition at 10 µM: 102%
  IC50: 6.15 nM
[2]; 0.1 mg/kg p.o., 0-72 h
  reduction of retches+vomits, overall combined acute and delayed response: 23.9%
[2]; 0.1 mg/kg p.o., entire 72 h observation period
  reduction of retches: 21.9%
[2]; 1 mg/kg p.o., 0-72 h
  reduction of retches+vomits, overall combined acute and delayed response: 52.2%
[2]; 1 mg/kg p.o., day 1 (acute)
  reduction of retching+vomiting response: 64.5%
[2]; [6]
  reduction of retching+vomiting response: 22.7%
[2]; 1 mg/kg p.o., day 3
  reduction of retching+vomiting response: 67.5%
[2]; 1 mg/kg p.o.
  reduction of retching+vomiting, entire delayed phase: 41.3%
[2]; [7]
  reduction of total number of episodes: 59.0%
  reduction of total number of retches: 51.3%
  reduction of total number of vomits: 57.3%
[3]
  inhibition at 10 µM: 26%
  IC50: > 10000 nM
[4]
  inhibition at 10 µM: 15%
  IC50: > 10000 nM
Human NK-1 receptor
  IC50: 0.64 nM
[5]; iv, 4 mg/kg
  AUC(0-t): 663 ng·h/mL
  half-life: 1.84 h
[5]; oral, p.o. 20 mg/kg vs i.v. 4 mg/kg
  bioavailability: 22.4%
[5]; po, 20 mg/kg
  AUC(0-t): 740 ng·h/mL
  Cmax: 202 ng/mL
  Tmax: 1.4 h
  half-life: 1.9 h

## [2H]C([2H])([2H])Oc1ccc(S(F)(F)(F)(F)F)cc1CN[C@H]1CCCN[C@H]1c1ccccc1 [Compound IV, (2S,3S)—N-(2-(methoxy-d3)-5-(pentafluorosulfanyl)benzyl)-2-phenylpiperidin-3-amine]
[1]
  inhibition at 10 µM: 101%
  IC50: 22.2 nM
[3]
  inhibition at 10 µM: 29%
  IC50: > 10000 nM
[4]
  inhibition at 10 µM: 1%
  IC50: > 10000 nM

## C[C@@H](O[C@H]1OCCN(Cc2n[nH]c(=O)[nH]2)[C@H]1c1ccc(F)cc1)c1cc(C(F)(F)F)cc(C(F)(F)F)c1 [aprepitant, reference compound]
[2]; 1 mg/kg p.o., 0-72 h
  reduction of retches+vomits, overall combined acute and delayed response: 67.4%
[2]; 1 mg/kg p.o., day 1 (acute)
  reduction of retching+vomiting response: 76.5%
[2]; [6]
  reduction of retching+vomiting response: 46.7%
[2]; 1 mg/kg p.o., day 3
  reduction of retching+vomiting response: 73.3%
[2]; 1 mg/kg p.o.
  reduction of retching+vomiting, entire delayed phase: 59.4%
[2]; [7]
  reduction of total number of episodes: 64.0%
  reduction of total number of retches: 67.9%
  reduction of total number of vomits: 64.6%
[2]; aprepitant 1 mg/kg p.o. vs Compound I 0.1 mg/kg, 0-72 h
  superiority in reduction of retches+vomits over Compound I 0.1 mg/kg: 43.5%
[2]; aprepitant 1 mg/kg p.o. vs Compound I 0.1 mg/kg, 72 h
  superiority in reduction of retches over Compound I 0.1 mg/kg: 46%
